Test results reported in patent publication US11571454B2, “Anticancer peptides that synergistically enhance chemotherapeutic potency” (The Penn State Research Foundation, priority 2017, dated 2023).

Columns and labels:
OVCAR-3 cells = test: Combinatorial (checkerboard) cytotoxicity, OVCAR-3; type: cell-based, human; conditions: for Combined FIC Score, OVCAR-3: chemotherapeutic in combination with MAD1, FIC <1 additive, <0.5 synergistic; for synergy with MAD1, OVCAR-3: drug-refractory line, combination with MAD1
Text: (§1) For combinatorial cytotoxicity experiments, 96 well plates were set up in a checkerboard fashion such that peptide decreased in 1:10 concentration dilutions in one direction and chemotherapeutic decreased in 1:10 concentration dilutions in the orthogonal direction. 2×treatments were combined prior to cell administration for a final 1×concentration to prevent individual treatment effects.

NCI/ADR-RES cells = test: Combinatorial (checkerboard) cytotoxicity, NCI/ADR-RES; type: cell-based, human; conditions: for Combined FIC Score, NCl/ADR-RES: chemotherapeutic in combination with MAD1, FIC <1 additive, <0.5 synergistic; for drug potency (IC50) in NCI/ADR-RES on co-treatment with MAD1: in the presence of 20 μM MAD1, compared with OVCAR-3; for synergy with MAD1, NCI/ADR-RES: multidrug resistant line, combination with MAD1
Text: as §1

[1] = test system: patient-derived tumor cell spheroids (EOC15, 17, 19); test: Ex vivo 3D tumor spheroid culture; type: cell-based, human
Method: EOC patient-derived cells were cultured in 1:1 MCDB-105: M199 supplemented with 10% FBS and 1% penicillin-streptomycin. EOC patient-derived cells were provided by Dr. Katherine M. Aird under an Institutional Review Board-approved protocol. EOC patient-derived cells were collected from patient ascites fluid after paracentesis procedures. Cells were routinely tested for mycoplasma as previously described. […] Spheroid length and width was calculated using ImageJ. Spheroid volume was calculated using the following equation […] Statistical Methods […] IC50 values are reported as mean values±standard deviation. […] Pore size frequency distribution was completed by ImageJ FIJI on 4 independent cells and n=30 pores from SEM images. […] Individual UV-Vis and CD spectra, as well as fluorescent confocal and TEM micrographs, shown are representative plots from three individual experiments. CD data is with a variance in ellipticity of 0.2 millidegrees at each wavelength. Relative fluorescence data calculated from fluorescent confocal images represents the average of 10 independent measurements±standard deviation. For spheroid volume analysis, a Kruskal-Wallis test and Dunn's multiple comparisons test was performed using GraphPad Prism 8.

[2] = test system: A549 (lung carcinoma) cells; test: MTT cytotoxicity assay, A549; type: cell-based, human; conditions: for IC50: 48 hours treatment, MTT, read-out: Cancerous (IC50, μM) A549
Method: (§2) All cells were cultured using standard culture conditions at 37° C., 5% CO2, and 95% humidity. A549 (CCL-185), OVCAR-3 (HTB-161), T24 (HTB-4), and NCI/ADR-RES were cultured in RPMI-1640 supplemented with 10% v/v fetal bovine serum (FBS), 2 mM L-glutamine (L-Gln), 10,000 units penicillin/mL, 10 mg/mL streptomycin, and 25 μg/mL amphotericin B. HUVEC (PCS-100-010) cells were cultured in Vascular Cell Basal Media (PCS-100-030) supplemented with an Endothelial Cell Growth Kit-VEGF (PCS-100-041) and 10 μg/mL gentamycin in culture flasks coated with 0.1% gelatin by incubating at 37° C. for 15 min. NL20 (CRL-2503) cells were cultured in Ham's F12 supplemented with 1.5 g/L sodium bicarbonate, 2.7 g/L glucose, 2.0 mM L-glutamine, 0.1 mM nonessential amino acids, 0.005 mg/ml insulin, 10 ng/ml epidermal growth factor, 0.001 mg/ml transferrin, 500 ng/ml hydrocortisone and 4% fetal bovine serum, as advised by American Type Culture Collection (ATCC).
(§3) Viability was calculated by comparing to an untreated control.
(§4) All experiments were performed with n>6.
(§5) Cell viability experiments were completed n>6 in two independent experiments and analyzed using GraphPad Prism 8 to fit curves and calculate IC50 values using inhibitor vs. normalized response non-linear regression model. IC50 values are reported as mean values±standard deviation. […] Pore size frequency distribution was completed by ImageJ FIJI on 4 independent cells and n=30 pores from SEM images. UV-Vis OD600 and CD spectra are means of 5 and 3 replicates, respectively and reported as mean±standard deviation. Individual UV-Vis and CD spectra, as well as fluorescent confocal and TEM micrographs, shown are representative plots from three individual experiments. CD data is with a variance in ellipticity of 0.2 millidegrees at each wavelength. Relative fluorescence data calculated from fluorescent confocal images represents the average of 10 independent measurements±standard deviation. For spheroid volume analysis, a Kruskal-Wallis test and Dunn's multiple comparisons test was performed using GraphPad Prism 8.

[3] = test system: NCI/ADR-RES (drug-resistant ovarian carcinoma) cells; test: MTT cytotoxicity assay, NCI/ADR-RES; type: cell-based, human; conditions: for IC50: 48 hours treatment, MTT, read-out: Cancerous (IC50, μM) NCl/ADR-RES
Method: as §2, §3, §4, §5

[4] = Liposome disruption (OD600), cancer membrane model; conditions: OD600 and visual flocculates
Method: (§6) Liposomes were prepared by extrusion techniques according to previous methods. Briefly, all liposomes were prepared in 2×concentration (5 mM). Healthy and cancer liposomal mimicking membranes were prepared with 72:23:[…] phosphatidylcholine (POPC):phosphatidylethanolamine (DOPE):phosphatidylserine (POPS) lipids, respectively. The lipids dissolved in chloroform were mixed in proper molar proportions before being evaporated under a stream of argon. The lipid film was then dried completely by lyophilization overnight. […] The extruded liposomes were then dialyzed in 3500 MWCO dialysis cassettes against water. Parallel optical density experiments were conducted measuring the absorbance at 600 nm (OD600) to track the kinetics and specificity of membrane disruption. Measurements were taken every 30 seconds for the first 10 min., followed by measurements every minute until 15 min.

[5] = Liposome disruption (OD600), normal membrane model
Method: as §6

[6] = test system: polymicrobial panel (six bacterial lines); test: Antimicrobial activity against polymicrobial panel; type: cell-based; conditions: six bacterial lines
[7] = test system: non-cancerous cell lines HUVEC and NL20; test: MTT cytotoxicity, non-cancerous control cell lines; type: cell-based, human
Method: as §2, §3, §4

[8] = test system: OVCAR-3 ovarian carcinoma cells; conditions: for IC50: 48 h
[9] = test system: T24 (urinary bladder transitional cell carcinoma) cells; conditions: 48 h
[10] = test system: human umbilical vein endothelial cells (HUVEC); conditions: 48 h
[11] = test system: human lung epithelium (NL20); conditions: 48 h
B. subtilis (168) = conditions: 24 hours, Gram Positive
MS S. aureus = conditions: 24 hours, Gram Positive
MR S. aureus = conditions: 24 hours, Gram Positive
P. aeruginosa = conditions: 24 hours, Gram Negative
E. coli = conditions: 24 hours, Gram Negative
M. tuberculosis = conditions: 24 hours, Mycobacteria
[12] = test system: panel of human cancer cell lines (A549, OVCAR-3, NCI/ADR-RES, T24)
[13] = test system: T24 (urinary bladder transitional cell carcinoma) cells; test: MTT cytotoxicity assay, T24; conditions: IC50-HUVEC/IC50-T24

Compound | Combined FIC Score, OVCAR-3 (OVCAR-3 cells) | synergy with MAD1, OVCAR-3 (OVCAR-3 cells) | Combined FIC Score, NCl/ADR-RES (NCI/ADR-RES cells) | drug potency (IC50) in NCI/ADR-RES on co-treatment with MAD1 (NCI/ADR-RES cells) | synergy with MAD1, NCI/ADR-RES (NCI/ADR-RES cells) | IC50 [2] | IC50 [3] | antimicrobial activity against polymicrobial panel [6] | IC50 [8] | IC50 [9] | IC50 [10] | IC50 [11] | MIC (μM) B. subtilis (168) (B. subtilis (168)) | MIC (μM) MS S. aureus (MS S. aureus) | MIC (μM) MR S. aureus (MR S. aureus) | MIC (μM) P. aeruginosa (P. aeruginosa) | MIC (μM) E. coli (E. coli) | MIC (μM) M. tuberculosis (M. tuberculosis) | also measured
N.N.[Cl][Pt][Cl] [Cis, Cisplatin] | 0.31 | potently synergizes | 0.27 | restored the potency | potently synergizes |  |  |  |  |  |  |  |  |  |  |  |  |  | spheroid size, combination ([1]; 2 μM cisplatin combined with 4 μM MAD1, 48 hours): potent and synergistic anticancer effects; spheroid size, single agent ([1]; 2 μM cisplatin or 4 μM MAD1 alone, 48 hours): minimal reduction in size
COc1cccc2c1C(=O)c1c(O)c3c(c(O)c1C2=O)C[C@@](O)(C(=O)CO)C[C@@H]3O[C@H]1C[C@H](N)[C@H](O)[C@H](C)O1 [Dox, Doxorubicin] | 0.33 | potently synergizes | 0.37 | restored the potency | potently synergizes |  |  |  |  |  |  |  |  |  |  |  |  |  | 
CC(=O)O[C@H]1C(=O)[C@@]2(C)[C@H]([C@H](OC(=O)c3ccccc3)[C@]3(O)C[C@H](OC(=O)[C@H](O)[C@@H](NC(=O)c4ccccc4)c4ccccc4)C(C)=C1C3(C)C)[C@]1(OC(C)=O)CO[C@@H]1C[C@@H]2O [Ptx, Paclitaxel] |  |  | 0.27 |  | potently synergizes |  |  |  |  |  |  |  |  |  |  |  |  |  | 
H-LWKRWVGVWRKWL-NH2 [DAP1] |  |  |  |  |  | 11.9 µM | 14 µM | bactericidal activity | 8.6 µM | 15.3 µM | 19.5 µM | 19 µM | <0.6 µM | 7 µM | 5 µM | 20 µM | 10 µM | 20 µM | Therapeutic Index A549 ([2]; IC50-HUVEC/IC50-A549): 1.6; Therapeutic Index NCl/ADR-RES ([3]; IC50-HUVEC/IC50-NCI/ADR-RES): 1.4; disruption/lysis of cancer membrane liposomes [4]: does not completely lyse; disruption/interaction with normal (healthy) membrane liposomes [5]: little interaction affinity; toxicity towards non-cancerous control cell lines [7]: nearly equal toxicity; Therapeutic Index OVCAR-3 ([8]; IC50-HUVEC/IC50-OVCAR-3): 2.3; IC50 [12]: 8.6 to 15.3 µM; therapeutic indices across cell lines ([12]; relative to HUVEC controls): ≤ 2.3; Therapeutic Index T24 [13]: 1.3
H-RWGKWFKKNSHLS-NH2 [DAP2] |  |  |  |  |  | > 100 µM | > 100 µM | inactive | > 100 µM | > 100 µM | > 100 µM | > 100 µM | >80 µM | >80 µM | >80 µM | >80 µM | >80 µM | >80 µM | Cancerous (IC50, μM) OVCAR-3 ([8]; 48 hours treatment, MTT): did not achieve an IC50; activity towards all four tumor cell lines tested ([12]; result in words): inactive
